Measurements from patent US20260373226A1, “METHODS AND COMPOSITIONS FOR THE TREATMENT OF NEURODEGENERATIVE DISEASE” (Stealth BioTherapeutics Inc., priority 2022, published 2026).

Experiment: Steady state PK in plasma, CSF, brain cortex after 10 daily s.c. doses in nonhuman primates
Assay type: in vivo, cynomolgus monkey
Procedure: Pharmacokinetic profile of SBT-272 in nonhuman primate plasma, CSF, and brain. The objective of this study was to determine the pharmacokinetic profile of SBT-272 in CSF and plasma when delivered by subcutaneous (SC) injection for 10 days to cynomolgus monkeys. SBT-272 solution was administered daily by SC injection for 10 days. The following parameters and endpoints were evaluated in this study: mortality, clinical observations, body weights, pharmacokinetic samples (CSF and plasma), and selected tissue collection. There was no mortality during the study. […] Additional details regarding the experimental protocol are provided below.
Test System. Details Regarding the Test System are Provided Below: • Species: Nonhuman primate • Strain/Breed: Cynomolgus monkey • Animal Condition: Non-naïve • Animal Procurement Method: In-house colony • Animal Supplier: Charles River Laboratories • Animal Supplier Location: 531 Boul des Prairies, Laval, QC H7V 1B7, Canada • Animal Origin: Asia • Number of Males: 3 • Age at the Initiation of Dosing: 18 to 60 months • Weight at the Initiation of Dosing: 1.4 to 5.0 kg
Study design. The study design is described in Table 9.
• Route of Administration: Subcutaneous injection into the scapular and mid-dorsal areas • Treatment Frequency: Daily • Treatment Duration: 10 days • Method: The first day of dosing is designated as Day 1. Dose formulations are allowed to warm up at ambient temperature for at least 30 minutes prior to dosing, as appropriate. The animals are temporarily restrained for dose administration and are not be sedated. The volume for each dose is administered over 1 (preferred) or 2 (as necessary) separate injections within the designated area. Injection sites are rotated daily (see FIG. 4B). If a designated subcutaneous test site is not available for a given animal on any day, then the next available test site in the rotation should be used for dosing. The injection area is marked as frequently as required to allow appropriate visualization of administration sites. Hair may be clipped or shaved if required to improve visualization of the injection sites. On the last injection occasion for each quadrant, the last site of injection is circled, and the circled site is collected at necropsy.
CSF Sample Processing. CSF samples re processed and stored within 1 hour of collection. Following each CSF collection, the sample is visually inspected, and the appearance is recorded. Samples are maintained on wet ice prior to and after centrifugation. Samples are centrifuged for 5 minutes in a refrigerated centrifuge (set to maintain 4 °C) at 2000 g RCF within 1 hour of collection. The resultant supernatant is collected within 30 minutes (as quickly as possible) of centrifugation and will be visually inspected; the appearance of the supernatant and any traces of blood in the pellet re recorded. Precipitate (if any) is discarded. CSF samples are separated into 2 approximately 100 μL equal aliquots into uniquely labelled low protein binding polypropylene tubes each containing 10 μL of 5% (v/v) phosphoric acid aqueous solution. Any remaining CSF will be transferred into a 3rd low protein binding polypropylene tube containing a volume of 5% (v/v) phosphoric acid solution adjusted to result in a 1:10 ratio of acid solution: CSF. All samples are placed on dry ice and transferred to a freezer set to maintain −70 °C.
Plasma Sample Processing. […]

Cc1cc(O)cc(C)c1C[C@H](NC(=O)[C@H](N)CCCNC(=N)N)C(=O)N[C@@H](CCCCN)c1nc(Cc2ccccc2)no1 [SBT-272, (R)-2-amino-N—((S)-1-(((S)-5-amino-1-(3-benzyl-1,2,4-oxadiazol-5-yl)pentyl)amino)-3-(4-hydroxy-2,6-dimethylphenyl)-1-oxopropan-2-yl)-5-guanidinopentanamide]
plasma:CSF ratio (cynomolgus monkey, 5 mg/kg s.c., 10 daily doses): 6.40 | brain:CSF ratio (cynomolgus monkey, brain (cortex), 5 mg/kg s.c., 10 daily doses): 328 | Kp (in vivo, sc, cynomolgus monkey, brain (cortex), 5 mg/kg s.c., 10 daily doses, read-out: brain:plasma ratio): 51 | brain drug concentration versus predictions based on rodent studies (nonhuman primate, FIGS. 5A-5B): met predictions based on rodent studies | correlation between species in steady state brain concentration at trough (rat and nonhuman primate, repeated SC dosing): excellent correlation between species in steady state brain concentration at trough
